Measurements: patent publication US8846671B2, “Heterocyclic alkynyl benzene compounds and medical compositions and uses thereof” (Guangzhou Institute of Biomedicine and Health, Chinese …, priority 2010, dated 2014)
“Also recorded” adds a separate entry of the source. Structures can show the parent of a compound that is named as a salt. Where two headings read alike, the source gives them in different places.

What was measured:
BCR-ABL T315I mutant = settings: cited from earlier work
[1] = tested on: cells carrying c-KIT D816V; settings: cited from earlier work
[2] = tested on: K562R cells (imatinib-resistant cell line); assay: tumor cell proliferation, MTT or CCK8 assay, 72 h incubation; type: cell-based; settings: Homo sapiens, K-562R, read-out: IC50 on tumor cell proliferation, K562R cells
[3] = Pharmacokinetics and bioavailability in rats; type: in vivo; settings: SD rats; corresponding pharmaceutical acceptable salt forms
In short: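 Rats dosed, heparinized blood sampled at set times, plasma stored at -20 °C, acetonitrile-precipitated and analyzed by HPLC-MS. Compartmental and non-compartmental parameters derived; bioavailability from AUC.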

[4] = tested on: MOLT-4 (Human acute lymphoblastic leukemia cell line); assay: tumor cell proliferation, MTT or CCK8 assay, 72 h incubation; type: cell-based; settings: MOLT-4, 72 h, read-out: IC50 on tumor cell proliferation, MOLT-4
In short: (§1)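 Leukemia cell lines were exposed to compounds at 1×10^−10˜1×10^−5M for 72 h. Proliferation was read by MTT (570 nm) or CCK8 (450/650 nm) after a further 4 h incubation. IC50 values were calculated from inhibition of proliferation.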

U937 Cell line = assay: as above; type: cell-based; settings: Homo sapiens, read-out: IC50 on tumor cell proliferation, U937
In short: as §1

[5] = tested on: MEG-01 (Human megakaryoblastic leukaemia cell line); assay: as above; type: cell-based; settings: MEG-01, 72 h, read-out: IC50 on tumor cell proliferation, MEG-01
In short: as §1

[6] = tested on: L78 (Lung cancer cell line); assay: as above; type: cell-based; settings: Homo sapiens, read-out: IC50 on tumor cell proliferation, L78
[7] = tested on: K562 (human chronic myelogenous leukemia cell line); assay: as above; type: cell-based; settings: K562, 72 h, read-out: IC50 on tumor cell proliferation, K562
In short: as §1

[8] = biological target: BAF3-T315I cells (Ba/F3 cell line stably expressing BCR/ABL T315I) (Homo sapiens, UniProt P00519, T315I, cells depend on it); assay: as above; type: cell-based, mice
[9] = read-out: IC50 on tumor cell proliferation, BAF3-T315I cells; Ba/F3 expressing BCR/ABL T315I, 72 h, Table 1

IC50 [2] [nM] | pharmacokinetics parameters, overall judgement [3] | IC50 [4] [nM] | IC50 (U937 Cell line; U-937, 72 h) [nM] | IC50 [5] [nM] | IC50 [6] [nM] | IC50 [7] [nM] | GI50 [8, 9] [nM] | Structure (SMILES) | effect on cells with c-KIT D816V point mutation [1] | also measured
 |  |  |  |  |  |  |  | Cc1cn(-c2cc(NC(=O)c3ccc(C)c(Nc4nccc(-c5cccnc5)n4)c3)cc(C(F)(F)F)c2)cn1 [AMN107, Nilotinib] | no effect | effect on BCR-ABL T315I mutant (BCR-ABL T315I mutant): neither AMN107 nor BMS-354825 have effect
840 | adequate pharmacokinetics parameters | 12700 | 8990 | 22600 | > 10000 | 3.48 | 1030 | Cc1cn(-c2cc(NC(=O)c3ccc(C)c(C#Cc4cnc(NC(C)C)nc4)c3)cc(C(F)(F)F)c2)cn1 [D752, 3-(2-(2-(isopropylamino)pyrimidin-5-yl)ethynyl)-4-methyl-N-(3-(4-methyl-1H-imidazol-1-yl)-5-(trifluoromethyl)phenyl)benzamide] |  | 
220 | adequate pharmacokinetics parameters | > 10000 | > 10000 | > 10000 | 11800 | 7.59 | 61 | CCNc1ncc(C#Cc2cc(C(=O)Nc3cc(-n4cnc(C)c4)cc(C(F)(F)F)c3)ccc2C)cn1 [D755, 3-(2-(2-(ethylamino)pyrimidin-5-yl)ethynyl)-4-methyl-N-(3-(4-methyl-1H-imidazol-1-yl)-5-(trifluoromethyl)phenyl)benzamide] |  | 
 | adequate pharmacokinetics parameters |  |  |  |  |  |  | Cc1cn(-c2cc(NC(=O)c3ccc(C)c(C#Cc4cnc5[nH]ncc5c4)c3)cc(C(F)(F)F)c2)cn1 [D767, 3-(2-(1H-pyrazolo[3,4-b]pyridin-5-yl)ethynyl)-4-methyl-N-(3-(4-methyl-1H-imidazol-1-yl)-5-(trifluoromethyl)phenyl)benzamide] |  | IC50 ([2]; imatinib-resistant K562R): 89 nM; IC50 ([4]; MTT or CCK8, nM): > 100 nM; IC50 (U937 Cell line; U-937, 72 h, MTT or CCK8, nM): > 100 nM; IC50 ([5]; MTT or CCK8, nM): > 100 nM; IC50 ([6]; MTT or CCK8, nM): 11.8 nM; IC50 ([7]; MTT or CCK8, nM): 0.208 nM; GI50 ([8]; Ba/F3 expressing BCR/ABL T315I, 72 h, Table 1; read-out: IC50 on tumor cell proliferation, BAF3-T315I cells): 4.24 nM
 |  |  |  |  |  |  |  | Cc1ccc(NC(=O)c2ccc(CN3CCN(C)CC3)cc2)cc1Nc1nccc(-c2cccnc2)n1 [STI571, Imatinib mesylate] | cannot inhibit proliferation; also recorded: no effect | 

Structure (SMILES) | IC50 [2] [nM] | pharmacokinetics parameters, overall judgement [3] | IC50 [4] [nM] | IC50 (U937 Cell line; U-937, 72 h) [nM] | IC50 [5] [nM] | IC50 [6] [nM] | IC50 [7] [nM] | GI50 [8, 9] [nM] | effect on cells with c-KIT D816V point mutation [1] | also measured
Cc1cn(-c2cc(NC(=O)c3ccc(C)c(C#Cc4cnc(NC5CC5)nc4)c3)cc(C(F)(F)F)c2)cn1 [D747, 3-(2-(2-(cyclopropylamino)pyrimidin-5-yl)ethynyl)-4-methyl-N-(3-(4-methyl-1H-imidazol-1-yl)-5-(trifluoromethyl)phenyl)benzamide] | 96 | adequate pharmacokinetics parameters | > 10000 | 11500 | 7540 | 10600 | 2.6 | 99.7 |  | 
